Experimental data reported in patent publication US20050096327A1, “Novel norepinephrine reuptake inhibitors for the treatment of central nervous system disorders” (priority 2003, published 2005).

Experiments:
[1] = molecular target: T1, human serotonin transporter (Homo sapiens, UniProt P31645); assay: hSERT receptor binding ([125I]-RTI-55, membranes of transfected HEK-293 cells); conditions: 50 pM [125I]-RTI-55, 90 min room temperature; IC50 converted by Cheng-Prusoff
T1 construct: host or cells: HEK-293
T1 sequence (P31645 whole entry): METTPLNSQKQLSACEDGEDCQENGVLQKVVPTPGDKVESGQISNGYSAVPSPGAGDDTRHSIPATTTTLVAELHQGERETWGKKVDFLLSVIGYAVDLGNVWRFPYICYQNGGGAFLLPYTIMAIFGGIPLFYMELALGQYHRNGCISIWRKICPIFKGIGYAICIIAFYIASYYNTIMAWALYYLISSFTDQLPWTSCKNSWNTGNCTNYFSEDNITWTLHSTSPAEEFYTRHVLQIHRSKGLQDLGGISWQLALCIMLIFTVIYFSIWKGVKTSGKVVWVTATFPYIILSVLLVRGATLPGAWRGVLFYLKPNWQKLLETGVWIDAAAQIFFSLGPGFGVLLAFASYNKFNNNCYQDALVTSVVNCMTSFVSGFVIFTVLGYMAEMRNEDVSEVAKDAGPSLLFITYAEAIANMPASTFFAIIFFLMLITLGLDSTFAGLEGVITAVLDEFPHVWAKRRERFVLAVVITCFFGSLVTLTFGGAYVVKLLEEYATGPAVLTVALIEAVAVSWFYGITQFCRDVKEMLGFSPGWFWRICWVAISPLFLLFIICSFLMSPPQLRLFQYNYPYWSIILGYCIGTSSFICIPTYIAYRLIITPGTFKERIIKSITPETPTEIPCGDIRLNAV
Procedure, shortened: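 Membranes of HEK-293 cells expressing human SERT incubated 90 min at room temperature with 50 pM [125I]-RTI-55 and compound (10^−5 to 10^−12 M) in Krebs-HEPES, pH 7.4. Nonspecific binding defined with 10 μM citalopram; IC50 converted to Ki by Cheng-Prusoff.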

[2] = molecular target: T2, human norepinephrine transporter (Homo sapiens, UniProt P23975); assay: hNET receptor binding ([125I]-RTI-55, membranes of transfected HEK-293 cells); conditions: 50 pM [125I]-RTI-55, 90 min room temperature; IC50 converted by Cheng-Prusoff
T2 construct: host or cells: HEK-293
T2 sequence (P23975 whole entry): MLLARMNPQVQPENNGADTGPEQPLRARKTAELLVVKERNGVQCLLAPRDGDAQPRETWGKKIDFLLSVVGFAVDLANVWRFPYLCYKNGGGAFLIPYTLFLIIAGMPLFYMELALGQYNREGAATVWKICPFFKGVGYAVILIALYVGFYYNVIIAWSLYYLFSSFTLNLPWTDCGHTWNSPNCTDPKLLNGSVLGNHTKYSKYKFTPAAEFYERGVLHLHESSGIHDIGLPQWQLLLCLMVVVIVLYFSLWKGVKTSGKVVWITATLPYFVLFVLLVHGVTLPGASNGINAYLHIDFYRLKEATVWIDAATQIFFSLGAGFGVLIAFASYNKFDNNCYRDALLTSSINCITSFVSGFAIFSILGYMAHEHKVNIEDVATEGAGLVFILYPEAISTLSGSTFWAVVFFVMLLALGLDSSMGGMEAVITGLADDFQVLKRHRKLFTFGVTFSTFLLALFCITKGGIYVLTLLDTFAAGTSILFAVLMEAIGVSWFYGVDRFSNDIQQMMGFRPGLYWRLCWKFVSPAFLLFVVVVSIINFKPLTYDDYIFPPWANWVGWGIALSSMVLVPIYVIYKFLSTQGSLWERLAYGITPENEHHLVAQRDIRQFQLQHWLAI
Procedure, shortened: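 Competition binding on membranes from HEK-293 cells transfected with human NET, using 50 pM [125I]-RTI-55 in Krebs-HEPES pH 7.4, drug 10^−5 to 10^−12 M in duplicate, 90 min at room temperature, filtration. Nonspecific binding defined with 10 μM desipramine; IC50 converted to Ki by Cheng-Prusoff.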

Question: What does the source list for `Cl.Fc1ccccc1-c1nc(N2CCNCC2)nc2ccccc12` [Example 20, 4-(2-Fluoro-phenyl)-2-piperazin-1-yl-quinazoline hydrochloride]?
Answer: melting point: 276 to 277 °C; Ki [1]: 12 nM; Ki [2]: 1.7 nM

Question: For `Cl.Fc1cccc(-c2nc(N3CCNCC3)nc3ccccc23)c1F` [Example 37, 4-(2,3-Difluoro-phenyl)-2-piperazin-1-yl-quinazoline hydrochloride], which melting point is on record?
Answer: 273 to 276 °C

Question: What about the Ki [2] of the same compound?
Answer: 3 nM

Question: With `CN1CC2CCCC(C1)N2c1nc(-c2ccccc2)c2ccccc2n1` [Example 5, 2-(3-Methyl-3,9-diaza-bicyclo[3.3.1]non-9-yl)-4-phenyl-quinazoline] as the compound, how does the melting point read?
Answer: 118 to 121 °C

Question: And the Ki [2]?
Answer: 42 nM

Question: Which results are given for `Cl.N[C@H]1CCN(c2nc(-c3ccccc3F)c3ccccc3n2)C1` [Example 34, (S)-(+)-1-[4-(2-Fluoro-phenyl)-quinazolin-2-yl]-pyrrolidin-3-ylamine hydrochloride]?
Answer: melting point: 285 to 287 °C; Ki [2]: 3.8 nM

Question: Which results are given for `Cl.c1ccc(-c2nc(N3CCCNCC3)nc3ccccc23)cc1` [Example 7, 2-[1,4]Diazepan-1-yl-4-phenyl-quinazoline hydrochloride]?
Answer: melting point: 230 to 231 °C; Ki [2]: 2 nM

Question: With `Cl.N[C@@H]1CCN(c2nc(-c3ccccc3)c3ccccc3n2)C1` [Example 16, (R)-(−)1-(4-Phenyl-quinazolin-2-yl)-pyrrolidin-3-yl-amine hydrochloride] as the compound, how does the melting point read?
Answer: 261 to 265 °C

Question: What about the Ki [2] of the same compound?
Answer: 31 nM

Question: Which melting point does the source give for `COC(=O)C1(c2nc(-c3ccccc3F)c3ccccc3n2)CCNCC1.Cl` [Example 51, 4-[4-(2-Fluoro-phenyl)-quinazolin-2-yl]-piperidine-4-carboxylic acid methyl ester hydrochloride] here?
Answer: 210 to 211 °C

Question: And the Ki [2]?
Answer: 15.1 nM

Question: Which melting point does the source give for `Cl.NC1CCN(c2nc(-c3ccccc3)c3ccccc3n2)CC1` [Example 12, 1-(4-Phenyl-quinazolin-2-yl)-piperidin-4-ylamine hydrochloride] here?
Answer: > 300 °C

Question: And the Ki [2]?
Answer: 95.5 nM

Question: For `CC1CN(c2nc(-c3ccccc3)c3ccccc3n2)CCN1` (stereo not shown) [Example 54, 2-(3-Methyl-piperazin-1-yl)-4-phenyl-quinazoline], which melting point is on record?
Answer: 107 to 108 °C

Question: What about the Ki [2] of the same compound?
Answer: 41 nM

Question: With `Cc1ccc(-c2nc(N3CCN(C)CC3)nc3ccccc23)cc1` [Example 2, 2-(4-Methyl-piperazin-1-yl)-4-p-tolyl-quinazoline] as the compound, how does the melting point read?
Answer: 85 to 87 °C

Question: And the Ki [2]?
Answer: 77.3 nM

Question: Which melting point does the source give for `CN1CCN(c2nc(-c3ccccc3F)c3ccccc3n2)CC1` [Example 18, 4-(2-Fluoro-phenyl)-2-(4-methyl-piperazin-1-yl)-quinazoline] here?
Answer: 123 to 124 °C

Question: And the Ki [2]?
Answer: 12 nM

Question: With `CC(C)c1nc(N2CCNCC2)nc2ccccc12.Cl` [Example 6, 4-Isopropyl-2-piperazin-1-yl-quinazoline hydrochloride] as the compound, how does the melting point read?
Answer: 253 to 254 °C

Question: What about the Ki [2] of the same compound?
Answer: 16.5 nM

Question: Which results are given for `COC(=O)C1(c2nc(-c3ccccc3)c3ccccc3n2)CCCNC1.Cl` (stereo not shown) [Example 52, 3-(4-Phenyl-quinazolin-2-yl)-piperidine-3-carboxylic acid methyl ester hydrochloride]?
Answer: melting point: 143 to 145 °C; Ki [2]: 53.4 nM

Question: Which results are given for `CC1CN(c2nc(-c3ccccc3)c3ccccc3n2)C(C)CN1.Cl` (stereo not shown) [Example 9, 2-(2,5-Dimethyl-piperazin-1-yl)-4-phenyl-quinazoline hydrochloride]?
Answer: melting point: 221 to 222 °C; Ki [2]: 22 nM

Question: With `Cl.Fc1ccccc1-c1nc(N2CC3CNCC3C2)nc2ccccc12` (stereo not shown) [Example 39, 4-(2-Fluoro-phenyl)-2-(hexahydro-pyrrolo[3,4-c]pyrrol-2-yl)-quinazoline hydrochloride] as the compound, how does the melting point read?
Answer: 270 to 278 °C

Question: And the Ki [2]?
Answer: 41 nM

Question: For `Cl.Fc1cccc(Cl)c1-c1nc(N2CCNCC2)nc2ccccc12` [Example 36, 4-(2-Chloro-6-fluoro-phenyl)-2-piperazin-1-yl-quinazoline hydrochloride], which melting point is on record?
Answer: 266 to 268 °C

Question: What about the Ki [2] of the same compound?
Answer: 4 nM

Question: Which melting point does the source give for `CN1CCN(c2nc(-c3ccc(F)cc3)c3ccccc3n2)CC1` [Example 25, 4-(4-Fluoro-phenyl)-2-(4-methyl-piperazin-1-yl)-quinazoline] here?
Answer: 130 to 131 °C

Question: And the Ki [2]?
Answer: 82 nM

Question: With `CN1CCN(c2nc(-c3cccc(F)c3)c3ccccc3n2)CC1` [Example 26, 4-(3-Fluoro-phenyl)-2-(4-methyl-piperazin-1-yl)-quinazoline] as the compound, how does the melting point read?
Answer: 134 to 135 °C

Question: And the Ki [2]?
Answer: 34.9 nM
